The source of these data is the supplement of paper PMC11208160.

The nature of the data set: recombinant barcode read abundance after kanamycin selection (control-corrected) (log10(CPM+1)); higher = more efficient recombination; sequences stand for … in AGTGCAGAGAAAATCGGCCAGTTTTCTCTGCCTGCAGTCCGCATGCCGT…AGATTTATGCAGCGGACTGCCTTTCTCCCAAAGTGATAAACCGGACAGTATCATGGACCGGTTTTCCCGGTAATCCGTATTTGCAAGGTTGGTTTCACT; site = the 11-nt target. How it is done:
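Pooled E. coli target-specificity screen for the IS621 bridge recombinase. Each library plasmid pairs an 11-nt target (CT core) with a bridge RNA whose target-binding loop (9-nt LTG + 4-nt RTG) is reprogrammed; the rest of the 177-nt WT IS621 bridge RNA scaffold is fixed. The plasmid is co-electroporated with a WT donor plasmid; recombinase is induced with 0.1 mM IPTG and recombinants are selected on kanamycin. Recombinant barcodes are sequenced, converted to CPM, averaged over two biological replicates and corrected by the unselected control CPM. Molecule = full bridge RNA written as DNA: LTG = specificity nt 1-9, RTG = reverse complement of specificity nt 8-11, in the WT scaffold.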
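Note: IS621 recombinase and bridge RNA in Escherichia coli cells.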

For the sequence “AAGCGTGCTTGGGTTCTAACCTGTTGCCT (site AAGCGTTCTAG)”, the “recombinant barcode read abundance (log10)” value stood at 0.216.

For “AAGCGTTCTTGGGTTCTAACCTGTTGCCT (site AAGCGTACTAG)”, the “recombinant barcode read abundance (log10)” value is 0.0209. Take “AAGCGTTCTTGGGTTCTAACCTGTTGCCT (site AAGCGTCCTAG)”: the “recombinant barcode read abundance (log10)” value is 0.111. As for “AAGCGTTCTTGGGTTCTAACCTGTTGCCT (site AAGCGTGCTAG)”, the “recombinant barcode read abundance (log10)” value amounted to 0.0909. For “AAGCGTTCTTGGGTTCTAACCTGTTGCCT (site AAGCGTTCTAG)”, the “recombinant barcode read abundance (log10)” value is 1.54.

In the case of “AAGCTGCCTTGGGTTCTAACCTGTTGCCT (site AAGCTGCCTAG)”, the “recombinant barcode read abundance (log10)” value is 1.49. For “AAGCTGCCTTGGGTTCTAACCTGTTGCCT (site GAGCTGCCTAA)”, the “recombinant barcode read abundance (log10)” value came to 0.049. For the sequence “AAGGAACCTTGGGTTCTAACCTGTTGCCT (site AAGGAACCTAG)”, the “recombinant barcode read abundance (log10)” value turned out to be 2.59. Turning to “AAGGAACCTTGGGTTCTAACCTGTTGCCT (site CAGGAACCTAG)”, the “recombinant barcode read abundance (log10)” value was determined as 1.23. Turning to “AAGGAACCTTGGGTTCTAACCTGTTGCCT (site GAGGAACCTAG)”, the “recombinant barcode read abundance (log10)” value turned out to be 0.951.

As for “AAGGAACCTTGGGTTCTAACCTGTTGCCT (site TAGGAACCTAG)”, the “recombinant barcode read abundance (log10)” value came to 2.11. Consider “AAGGAGACTTGGGTTCTAACCTGTTGCCT (site AAAGGGACTAG)”, for which the “recombinant barcode read abundance (log10)” value is 0.116. Turning to “AAGGAGACTTGGGTTCTAACCTGTTGCCT (site AAGGAGACTAG)”, the “recombinant barcode read abundance (log10)” value worked out at 2.12. In the case of “AAGGCTTCTTGGGTTCTAACCTGTTGCCT (site AAGGCTACTAG)”, the “recombinant barcode read abundance (log10)” value came out at 0.171. As for “AAGGCTTCTTGGGTTCTAACCTGTTGCCT (site AAGGCTTCTAG)”, the “recombinant barcode read abundance (log10)” value turned out to be 1.4. On to “AAGGGGTCTTGGGTTCTAACCTGTTGCCT (site AAGGGGTCTAG)”, for which the “recombinant barcode read abundance (log10)” value was determined as 2.93. Take “AAGGGGTCTTGGGTTCTAACCTGTTGCCT (site TACGGGTCTAG)”: the “recombinant barcode read abundance (log10)” value is 0.112.

For the sequence “AAGGTCCCTTGGGTTCTAACCTGTTGCCA (site AAGGTCCCTTG)”, the “recombinant barcode read abundance (log10)” value stood at 1.85. For the sequence “AAGGTCCCTTGGGTTCTAACCTGTTGCCA (site AAGGTTCCTTA)”, the “recombinant barcode read abundance (log10)” value was 0.0911.

In the case of “AAGTCGTCTTGGGTTCTAACCTGTTGCCT (site AAGTCGTCTAG)”, the “recombinant barcode read abundance (log10)” value came out at 0.832. With “AAGTCGTCTTGGGTTCTAACCTGTTGCCT (site ACGTCGTCTAG)” the figure was 0.0906; with “AAGTCGTCTTGGGTTCTAACCTGTTGCCT (site AGGTCGTCTAG)”, 0.126. As to “AAGTCGTCTTGGGTTCTAACCTGTTGCCT (site ATGTCGTCTAG)”, the “recombinant barcode read abundance (log10)” value worked out at 0.0249.

With “AAGTCGTCTTGGGTTCTAACCTGTTGCTA (site AAGTCGTCTTA)”, the “recombinant barcode read abundance (log10)” value was 0.857.

As for “AAGTCGTCTTGGGTTCTAACCTGTTGCTA (site GCAATTGCTAG)”, the “recombinant barcode read abundance (log10)” value was 0.132.

Regarding “AAGTGCTCTTGGGTTCTAACCTGTTGCCG (site AAGTGCTCTCG)”, the “recombinant barcode read abundance (log10)” value stood at 1.89. For “AAGTGCTCTTGGGTTCTAACCTGTTGCCG (site AGGTGCCCTCG)” the value was 0.0892.

Turning to “AAGTTTCCTTGGGTTCTAACCTGTTGCAT (site AAGTGTCCTAT)”, the “recombinant barcode read abundance (log10)” value came out at 0.118. On to “AAGTTTCCTTGGGTTCTAACCTGTTGCAT (site AAGTTTCCTAT)”, for which the “recombinant barcode read abundance (log10)” value turned out to be 0.22.

Regarding “AATAACTCTTGGGTTCTAACCTGTTGCCT (site AATAACTCTAG)”, the “recombinant barcode read abundance (log10)” value was determined as 0.863.

Regarding “AATAACTCTTGGGTTCTAACCTGTTGCCT (site CATAACTCTAG)”, the “recombinant barcode read abundance (log10)” value was found to be 0.0701. For “AATAACTCTTGGGTTCTAACCTGTTGCCT (site GATAACTCTAG)” the value was 0.111; for “AATAACTCTTGGGTTCTAACCTGTTGCCT (site TATAACTCTAG)”, 0.139.

As for “AATAAGTCTTGGGTTCTAACCTGTTGCCT (site AATAAGTCTAG)”, the “recombinant barcode read abundance (log10)” value amounted to 0.483.

“AATAAGTCTTGGGTTCTAACCTGTTGCCT (site ACTAAGTCTAG)”: the “recombinant barcode read abundance (log10)” value amounted to 0.0757. “AATAAGTCTTGGGTTCTAACCTGTTGCCT (site AGTAAGTCTAG)”: the “recombinant barcode read abundance (log10)” value is 0.566. With “AATAAGTCTTGGGTTCTAACCTGTTGCCT (site ATTAAGTCTAG)” the figure was 0.122.

Regarding “AATAGAGCTTGGGTTCTAACCTGTTGCAG (site AAGTGAGCTCT)”, the “recombinant barcode read abundance (log10)” value amounted to 0.0557. Consider “AATAGAGCTTGGGTTCTAACCTGTTGCAG (site AATAGAGCTCT)”, for which the “recombinant barcode read abundance (log10)” value was found to be 2.23. As for “AATAGGACTTGGGTTCTAACCTGTTGCTA (site AATAAGACTTG)”, the “recombinant barcode read abundance (log10)” value was 0.0927.

Take “AATAGGACTTGGGTTCTAACCTGTTGCTA (site AATAGGACTTA)”: the “recombinant barcode read abundance (log10)” value stood at 0.896. Consider “AATAGGGCTTGGGTTCTAACCTGTTGCGG (site AATAGGGCTCC)”, for which the “recombinant barcode read abundance (log10)” value was 2.21.

In the case of “AATAGGGCTTGGGTTCTAACCTGTTGCGG (site ACTAGGGCTCC)”, the “recombinant barcode read abundance (log10)” value was found to be 0.294.

For the sequence “AATCGGCCTTGGGTTCTAACCTGTTGCGT (site AATAGGCCTAC)”, the “recombinant barcode read abundance (log10)” value came to 0.375. As for “AATCGGCCTTGGGTTCTAACCTGTTGCGT (site AATCGGCCTAC)”, the “recombinant barcode read abundance (log10)” value worked out at 1.85. With “AATCGGCCTTGGGTTCTAACCTGTTGCGT (site AATGGGCCTAC)” the figure was 0.0625; with “AATCGGCCTTGGGTTCTAACCTGTTGCGT (site AATTGGCCTAC)”, 0.175; with “AATGCTACTTGGGTTCTAACCTGTTGCAT (site AATGCTACTAT)”, 0.235. For the sequence “AATGCTACTTGGGTTCTAACCTGTTGCAT (site TATGCTACTAT)”, the “recombinant barcode read abundance (log10)” value amounted to 0.238. Take “AATGCTCCTTGGGTTCTAACCTGTTGCGT (site AATGCTCCTAA)”: the “recombinant barcode read abundance (log10)” value came to 0.116.

With “AATGCTCCTTGGGTTCTAACCTGTTGCGT (site AATGCTCCTAC)”, the “recombinant barcode read abundance (log10)” value came to 2.03.

For the sequence “AATGCTCCTTGGGTTCTAACCTGTTGCGT (site AATGCTCCTAG)”, the “recombinant barcode read abundance (log10)” value came out at 0.419.

Take “AATGCTCCTTGGGTTCTAACCTGTTGCGT (site AATGCTCCTAT)”: the “recombinant barcode read abundance (log10)” value came out at 0.177. In the case of “AATGCTCCTTGGGTTCTAACCTGTTGCTT (site AATGCTCCTAA)”, the “recombinant barcode read abundance (log10)” value came to 0.49. “AATGCTCCTTGGGTTCTAACCTGTTGCTT (site AATGCTCCTAC)”: the “recombinant barcode read abundance (log10)” value was 0.0515.

With “AATGCTCCTTGGGTTCTAACCTGTTGCTT (site AATGCTCCTAG)”, the “recombinant barcode read abundance (log10)” value was 0.103. “AATGCTCCTTGGGTTCTAACCTGTTGCTT (site AATGCTCCTAT)”: the “recombinant barcode read abundance (log10)” value came out at 0.135.

“AATGCTTCTTGGGTTCTAACCTGTTGCTT (site AATGCTTCTAA)”: the “recombinant barcode read abundance (log10)” value was found to be 0.398. Take “AATGCTTCTTGGGTTCTAACCTGTTGCTT (site GATGCTTCTAA)”: the “recombinant barcode read abundance (log10)” value was determined as 0.143.

Consider “AATGGGACTTGGGTTCTAACCTGTTGCGA (site AATGGGACTCA)”, for which the “recombinant barcode read abundance (log10)” value amounted to 0.331.

For the sequence “AATGGGACTTGGGTTCTAACCTGTTGCGA (site AATGGGACTTC)”, the “recombinant barcode read abundance (log10)” value came to 2.42. With “AATGGGACTTGGGTTCTAACCTGTTGCTG (site AATGGGACTCA)”, the “recombinant barcode read abundance (log10)” value was 2.47.

With “AATGGGACTTGGGTTCTAACCTGTTGCTG (site AATGGGACTTC)”, the “recombinant barcode read abundance (log10)” value came out at 1.55. Turning to “AATGGTCCTTGGGTTCTAACCTGTTGCCA (site AATGGTCCTTG)”, the “recombinant barcode read abundance (log10)” value is 0.588. Regarding “AATGGTCCTTGGGTTCTAACCTGTTGCCA (site CTAATATCTAT)”, the “recombinant barcode read abundance (log10)” value stood at 0.337. As to “AATTAGTCTTGGGTTCTAACCTGTTGCGG (site AATTAGTCTCC)”, the “recombinant barcode read abundance (log10)” value is 2.2. For “AATTAGTCTTGGGTTCTAACCTGTTGCGG (site AGTTAGTCTCC)”, the “recombinant barcode read abundance (log10)” value turned out to be 0.312.

Regarding “AATTGAGCTTGGGTTCTAACCTGTTGCCT (site AATTAAGCTAG)”, the “recombinant barcode read abundance (log10)” value was found to be 0.0773. With “AATTGAGCTTGGGTTCTAACCTGTTGCCT (site AATTCAGCTAG)” the figure was 0.0625; with “AATTGAGCTTGGGTTCTAACCTGTTGCCT (site AATTGAGCTAG)”, 0.887. For “AATTGAGCTTGGGTTCTAACCTGTTGCCT (site AATTTAGCTAG)”, the “recombinant barcode read abundance (log10)” value is 0.242. As for “AATTGCCCTTGGGTTCTAACCTGTTGCCT (site AATTGCCCTAG)”, the “recombinant barcode read abundance (log10)” value amounted to 0.369.

For the sequence “AATTGCCCTTGGGTTCTAACCTGTTGCCT (site ACTTGCCCTAG)”, the “recombinant barcode read abundance (log10)” value came out at 0.00964.
